Data on 24 compounds can be found in patent publication US20080242663A1, “NOVEL PYRIMIDINE DERIVATIVES 698” (ASTRAZENECA AB, priority 2007, published 2008).

Broadly, the IC50 is the concentration that inhibits the measured activity by half.

The structures appear in SMILES notation.

This test has as its target T1, recombinant EphB4 (Homo sapiens, UniProt P54760).
T1 construct: amino acids 563-987; Swiss-Prot Acc; No. P54760; purchased ProQinase GmbH 0178-0000-3
T1 sequence (P54760 563-987): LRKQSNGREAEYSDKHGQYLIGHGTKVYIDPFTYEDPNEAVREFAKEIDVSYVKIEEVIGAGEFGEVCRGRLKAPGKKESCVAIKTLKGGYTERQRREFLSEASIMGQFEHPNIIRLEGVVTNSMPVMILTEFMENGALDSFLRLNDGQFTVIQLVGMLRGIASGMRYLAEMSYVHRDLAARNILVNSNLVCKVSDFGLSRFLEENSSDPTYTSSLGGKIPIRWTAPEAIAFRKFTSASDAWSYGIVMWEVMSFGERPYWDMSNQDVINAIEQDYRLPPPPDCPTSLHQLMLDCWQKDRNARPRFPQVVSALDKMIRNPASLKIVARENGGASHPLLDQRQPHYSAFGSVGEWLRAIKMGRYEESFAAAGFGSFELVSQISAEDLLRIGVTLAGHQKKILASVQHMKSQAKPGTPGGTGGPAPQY
The experiment in a line: In vitro EphB4 enzyme assay (Alphascreen). The test is classed as biochemical. In short, it runs like this: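 Recombinant EphB4 phosphorylated biotin-poly-GAT with Mg-ATP for 1 hr at room temperature; EDTA stop, then Alphascreen donor/acceptor (anti-phosphotyrosine) beads for 20 hrs in the dark. After minimum subtraction, signal plotted against compound concentration to derive IC50.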
A general note: Alpha assays give light when donor and acceptor beads are brought close together.
Consider `Cc1ccc(CO)cc1N(C)c1ccnc(Nc2cc(N3CCOCC3)cc(N3CCC(=O)CC3)c2)n1` [Example 7.19, 1-(3-(4-((5-(hydroxymethyl)-2-methylphenyl)(methyl)amino)pyrimidin-2-ylamino)-5-morpholinophenyl)piperidin-4-one], for which the IC50 came out at 9.73 nM.

Consider `CN(CCO)C(=O)c1cc(Nc2nccc(N(C)c3cccc(Cl)c3)n2)cc(N2CCOCC2)c1` [Example 19.2, 3-[[4-[(3-chlorophenyl)-methyl-amino]pyrimidin-2-yl]amino]-N-(2-hydroxyethyl)-N-methyl-5-morphohn-4-yl-benzamide], for which the IC50 was determined as 395 nM.

Turning to `CN(c1cccc(Cl)c1)c1ccnc(Nc2cc(C(=O)N3CC[C@@H](O)C3)cc(N3CCOCC3)c2)n1` [Example 19.22, [3-[[4-[(3-chlorophenyl)-methyl-amino]pyrimidin-2-yl]amino]-5-morpholin-4-yl-phenyl]-[(3R)-3-hydroxypyrrolidin-1-yl]methanone], the IC50 was 119 nM.

Turning to `CCOc1cc(Nc2nccc(N(C)c3cc(CO)ccc3C)n2)cc(N2CCOCC2)c1` [Example 16, [3-[[2-[(3-ethoxy-5-morpholin-4-yl-phenyl)amino]pyrimidin-4-yl]-methyl-amino]-4-methyl-phenyl]methanol], the IC50 was determined as 132 nM.

`CN(c1ccnc(Nc2cc(N3CCOCC3)cc(N3CCOCC3)c2)n1)c1ccc(F)c(F)c1F` [Example 15.9, N-(3,5-dimorpholin-4-ylphenyl)-N′-methyl-N′-(2,3,4-trifluorophenyl)pyrimidine-2,4-diamine]: the concentration for half-maximal inhibition (IC50) is 602 nM.

Regarding `CCN(c1ccnc(Nc2cc(N3CCOCC3)cc(N3CCOCC3)c2)n1)c1cc(OC)ccc1C` [Example 22.3, N-(3,5-dimorpholin-4-ylphenyl)-N′-ethyl-N′-(5-methoxy-2-methyl-phenyl)pyrimidine-2,4-diamine], the IC50 amounted to 1190 nM.

Turning to `COc1cccc(N(c2ccnc(Nc3cc(N4CCOCC4)cc(N4CCOCC4)c3)n2)C(C)C)c1` [Example 20, N2-(3,5-dimorpholinophenyl)-N4-isopropyl-N4-(3-methoxyphenyl)pyrimidine-2,4-diamine], the IC50 was 912 nM.

For the compound `CN(c1ccnc(Nc2cc(N3CCOCC3)cc(N3CCSCC3)c2)n1)c1ccc(F)c(Cl)c1F` [Example 1, N′-(3-chloro-2,4-difluoro-phenyl)-N′-methyl-N-(3-morpholin-4-yl-5-thiomorpholin-4-yl-phenyl)pyrimidine-2,4-diamine], the IC50 is 763 nM.

On to `CN(c1cccc(F)c1)c1ccnc(Nc2cc(N3CCOCC3)cc(N3CCOCC3)c2)n1` [Example 10.5, N-(3,5-dimorpholin-4-ylphenyl)-N′-(3-fluorophenyl)-N′-methyl-pyrimidine-2,4-diamine], for which the IC50 is 340 nM.

On to `CN(c1ccnc(Nc2cc(N3CCOCC3)cc(S(C)(=O)=O)c2)n1)c1ccc(F)c(Cl)c1F` [Example 2.6, N′-(3-chloro-2,4-difluoro-phenyl)-N′-methyl-N-(3-methylsulfonyl-5-morpholin-4-yl-phenyl) pyrimidine-2,4-diamine], for which the concentration for half-maximal inhibition (IC50) is 447 nM.

Regarding `CN(c1cccc(C#N)c1)c1ccnc(Nc2cc(N3CCOCC3)cc(N3CCOCC3)c2)n1` [Example 10.10, 3-[[2-[(3,5-dimorpholin-4-ylphenyl)amino]pyrimidin-4-yl]-methyl-amino]benzonitrile], the IC50 came out at 527 nM.

As for `COc1ccc(N(C)c2ccnc(Nc3cc(N4CCOCC4)cc(N4CCOCC4)c3)n2)c(C)c1` [Example 15.11, N-(3,5-dimorpholin-4-ylphenyl)-N′-(4-methoxy-2-methyl-phenyl)-N′-methyl-pyrimidine-2,4-diamine], the IC50 stood at 1320 nM.

`Cc1ccc(N(C)c2ccnc(Nc3cc(N4CCOCC4)cc(N4CCOCC4)c3)n2)cc1Cl` [Example 15.19, N′-(3-chloro-4-methyl-phenyl)-N-(3,5-dimorpholin-4-ylphenyl)-N′-methyl-pyrimidine-2,4-diamine]: the IC50 is 1730 nM.

As to `CN(c1ccnc(Nc2cccc(N3CCOCC3)c2)n1)c1ccc(F)c(Cl)c1F` [Example 2.3, N′-(3-chloro-2,4-difluoro-phenyl)-N′-methyl-N-(3-morpholin-4-ylphenyl)pyrimidine-2,4-diamine], the IC50 was determined as 304 nM.

With `CN(C)C(=O)c1cc(Nc2nccc(N(C)c3cccc(Cl)c3)n2)cc(N2CCOCC2)c1` [Example 19.1, 3-[[4-[(3-chlorophenyl)-methyl-amino]pyrimidin-2-yl]amino]-N,N-dimethyl-5-morpholin-4-yl-benzamide], the IC50 turned out to be 419 nM.

On to `CN(c1ccnc(Nc2cc(N3CCOCC3)cc(N3CCOCC3)c2)n1)c1cc(Cl)ccc1CO` [Example 25.8, (4-chloro-2-((2-(3,5-dimorpholinophenylamino)pyrimidin-4-yl)(methyl)amino)phenyl)methanol], for which the IC50 was 6.39 nM.

As for `CN(c1ccc(C#N)cc1)c1ccnc(Nc2cc(N3CCOCC3)cc(N3CCOCC3)c2)n1` [Example 10.17, 4-[[2-[(3,5-dimorpholin-4-ylphenyl)amino]pyrim-idin-4-yl]-methyl-amino]benzonitrile], the 50% inhibitory concentration (IC50) worked out at 9780 nM.

Take `COc1ccc(CO)c(N(C)c2ccnc(Nc3cc(N4CCOCC4)cc(N4CCOCC4)c3)n2)c1` [Example 25.7, (2-((2-(3,5-dimorpholinophenylamino)pyrimidin-4-yl)(methyl)amino)-4-methoxyphenyl)methanol]: the IC50 worked out at 10.3 nM.

As for `CN(c1ccnc(Nc2cc(CO)cc(N3CCOCC3)c2)n1)c1ccc(F)c(Cl)c1F` [Example 2.7, [3-[[4-[(3-chloro-2,4-difluoro-phenyl)-methyl-amino]pyrimidin-2-yl]amino]-5-morpholin-4-yl-phenyl] methanol], the IC50 was 117 nM.

With `COc1cc(C)ccc1N(C)c1ccnc(Nc2cc(N3CCOCC3)cc(N3CCOCC3)c2)n1` [Example 15.12, N-(3,5-dimorpholin-4-ylphenyl)-N′-(2-methoxy-4-methyl-phenyl)-N′-methyl-pyrimidine-2,4-diamine], the IC50 is 1400 nM.

On to `COc1cccc(C)c1N(C)c1ccnc(Nc2cc(N3CCOCC3)cc(N3CCOCC3)c2)n1` [Example 25.2, N2-(3,5-dimorpholinophenyl)-N4-(2-methoxy-6-methylphenyl)-N4-methylpyrimidine-2,4-diamine], for which the IC50 came out at 76.9 nM.

`COc1ccc(C)c(N(C)c2ccnc(Nc3cc(N4CCOCC4)cc(N4CCOCC4=O)c3)n2)c1` [Example 12.7, 4-[3-[[4-[(5-methoxy-2-methyl-phenyl)-methyl-amino]pyrimidin-2-yl]amino]-5-morpholin-4-yl-phenyl]morpholin-3-one]: the IC50 turned out to be 305 nM.

Consider `Cc1ccc(CO)cc1N(CC1CC1)c1ccnc(Nc2cc(N3CCOCC3)cc(S(C)(=O)=O)c2)n1` [Example 8.4, [3-[cyclopropyl-methyl-[2-[(3-methylsulfonyl-5-morpholin-4-yl-phenyl)amino]pyrimidin-4-yl]amino]-4-methyl-phenyl]methanol], for which the IC50 amounted to 1070 nM.

Turning to `CN(c1ccnc(Nc2cc(N3CCOCC3)cc(N3CCOCC3)c2)n1)c1cccc(CO)c1F` [Example 25.4, (3-((2-(3,5-dimorpholinophenylamino)pyrimidin-4-yl)(methyl)amino)-2-fluorophenyl)methanol], the IC50 amounted to 11.6 nM.
